Data reported in US12662451B2, “Chemical compounds and uses thereof” (GLAXOSMITHKLINE INTELLECTUAL PROPERTY (NO.4) LIMITED, priority 2023, dated 2026).
Structures can show the parent of a compound that is named as a salt.

Experiments:
[1] = target: T1, recombinant full-length WRN protein (1-1432) (Homo sapiens, UniProt Q14191); assay: WRN unwinding activity, fluorogenic 384-well assay (Example A); format: biochemical; settings: WRN unwinding activity, 4 hr; Table 2; read-out: 4 hr UNW pIC50 (converted)
T1 construct: recombinant full-length WRN protein (1-1432)
In short: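 200 pM enzyme (2× stock) preincubated with compound 4 h at ambient temperature, then 200 μM ATP and 12 nM quenched TAMRA-labelled dsDNA (2× stocks) added for 60 min; EDTA-quenched. Buffer 25 mM Tris pH 8.0, 5 mM NaCl, 2 mM MgCl2. Fluorescence at 525/598 nm; pIC50 from four-parameter fit.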

[2] = system: SW48 human colorectal cancer cells (MSI-H cancer cells); assay: SW48 cell viability, CellTiter-Glo, 120 hours (Example B); settings: Table 2; for CC50: Homo sapiens, SW48, 120 h, read-out: SW48 pCC50, SW48 cell viability, 120 hours incubation (converted)

T1 sequence (Q14191 whole entry): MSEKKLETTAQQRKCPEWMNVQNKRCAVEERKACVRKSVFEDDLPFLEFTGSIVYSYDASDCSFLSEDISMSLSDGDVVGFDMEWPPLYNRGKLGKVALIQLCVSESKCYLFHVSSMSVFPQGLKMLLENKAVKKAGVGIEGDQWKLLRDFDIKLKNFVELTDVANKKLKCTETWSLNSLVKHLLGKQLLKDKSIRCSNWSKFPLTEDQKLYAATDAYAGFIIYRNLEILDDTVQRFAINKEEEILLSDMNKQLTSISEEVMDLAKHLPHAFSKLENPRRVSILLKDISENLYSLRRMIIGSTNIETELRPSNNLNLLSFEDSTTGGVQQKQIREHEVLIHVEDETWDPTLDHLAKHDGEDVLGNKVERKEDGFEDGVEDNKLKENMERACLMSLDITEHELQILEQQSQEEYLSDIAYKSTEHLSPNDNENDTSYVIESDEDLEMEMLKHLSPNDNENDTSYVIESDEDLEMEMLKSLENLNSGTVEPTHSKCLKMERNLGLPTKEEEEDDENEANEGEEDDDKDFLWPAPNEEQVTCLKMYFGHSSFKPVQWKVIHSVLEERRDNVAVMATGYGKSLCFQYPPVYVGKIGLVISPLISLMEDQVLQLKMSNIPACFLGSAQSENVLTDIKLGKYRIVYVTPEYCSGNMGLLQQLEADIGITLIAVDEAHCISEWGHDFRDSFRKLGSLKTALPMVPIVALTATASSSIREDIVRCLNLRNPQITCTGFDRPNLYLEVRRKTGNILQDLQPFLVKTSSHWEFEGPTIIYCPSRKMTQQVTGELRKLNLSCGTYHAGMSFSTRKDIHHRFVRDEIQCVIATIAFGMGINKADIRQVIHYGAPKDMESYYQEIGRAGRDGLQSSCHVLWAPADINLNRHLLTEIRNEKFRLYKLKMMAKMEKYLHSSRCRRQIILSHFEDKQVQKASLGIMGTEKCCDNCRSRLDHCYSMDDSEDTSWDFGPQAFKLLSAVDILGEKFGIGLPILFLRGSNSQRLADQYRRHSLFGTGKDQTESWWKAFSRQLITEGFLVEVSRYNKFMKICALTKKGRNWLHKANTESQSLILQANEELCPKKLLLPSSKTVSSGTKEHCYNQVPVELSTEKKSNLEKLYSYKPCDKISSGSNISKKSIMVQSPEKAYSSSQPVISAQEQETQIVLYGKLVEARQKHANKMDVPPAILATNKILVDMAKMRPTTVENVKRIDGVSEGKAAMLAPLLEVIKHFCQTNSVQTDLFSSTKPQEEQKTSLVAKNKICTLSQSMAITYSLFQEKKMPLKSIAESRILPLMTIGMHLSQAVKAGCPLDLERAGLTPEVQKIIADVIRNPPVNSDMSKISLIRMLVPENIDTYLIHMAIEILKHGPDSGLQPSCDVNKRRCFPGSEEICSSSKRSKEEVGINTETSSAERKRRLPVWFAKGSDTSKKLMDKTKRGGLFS

Compound	IC50 [1] [nM]	CC50 [2] [nM]	SW48 pCC50 ([2]; SW48 cell viability, 120 hours incubation)
C=CS(=O)(=O)N(C)c1ccc([C@H]2CCC[C@@H](C(=O)Nc3ccc(C(F)(F)F)cc3F)[C@@H]2C(=O)O)cc1 [Example 135, (1R,2R,6S)-2-((2-fluoro-4-(trifluoromethyl)phenyl)carbamoyl)-6-(4-(N-methylvinylsulfonamido)phenyl)cyclohexane-1-carboxylic acid]	2.51	2510	–
Cc1nc2cc(S(=O)(=O)N(C)c3ccc([C@H]4CCC[C@@H](C(=O)Nc5ccc(C(F)(F)F)cc5F)[C@@H]4C(=O)O)cc3)ccc2[nH]1 (single isomer, unassigned) [Example 92]	1.58	794	–
CCO[C@@H]1C[C@H](C(=O)Nc2ccc(C(F)(F)F)cn2)[C@@H](C(=O)O)[C@H](c2ccc(N(C)S(=O)(=O)c3ccc4c(c3)nc(C)n4C)cc2)C1 (relative stereo) [Example 156, rel-(1R,2R,4R,6S)-4-ethoxy-2-((5-(trifluoromethyl)pyridin-2-yl)carbamoyl)-6-(4-((N,1,2-trimethyl-1H-benzo[d]imidazole)-5-sulfonamido)phenyl)cyclohexane-1-carboxylic acid]	126	25100	–
CN(c1ccc([C@H]2CCC[C@@H](C(=O)Nc3ccc(C(F)(F)F)cc3F)[C@@H]2C(=O)O)cc1)S(=O)(=O)c1ccc2c(c1)CNCC2 [Example 260, (1R,2R,6S)-2-((2-fluoro-4-(trifluoromethyl)phenyl)carbamoyl)-6-(4-((N-methyl-1,2,3,4-tetrahydroisoquinoline)-7-sulfonamido)phenyl)cyclohexane-1-carboxylic acid hydrochloride]	2	1580	–
Cn1nccc1-c1ccc([C@H]2CCC[C@@H](C(=O)Nc3ccc(C(F)(F)F)cc3F)[C@@H]2C(=O)O)cc1 [Example 3, (1R,2R,6S)-2-((2-fluoro-4-(trifluoromethyl)phenyl)carbamoyl)-6-(4-(1-methyl-1H-pyrazol-5-yl)phenyl)cyclohexane-1-carboxylic acid]	3.98	10000	–
Cc1nc2cc(S(=O)(=O)N(C)c3ccc([C@H]4CCC[C@@H](CO[C@H]5CC[C@H](C(F)(F)F)CC5)[C@@H]4C(=O)O)cc3)ccc2n1C [Example 215, (1R,2R,6S)-2-((((1r,4R)-4-(trifluoromethyl)cyclohexyl)oxy)methyl)-6-(4-((N,1,2-trimethyl-1H-benzo[d]imidazole)-5-sulfonamido)phenyl)cyclohexane-1-carboxylic acid]	79.4	20000	–
CC[C@H]1CC[C@H](NC(=O)[C@@H]2CCC[C@H](c3ccc(N(C)S(=O)(=O)c4ccc5c(c4)nc(C)n5C)cc3)[C@H]2C(=O)O)CC1 [Example 176, (1R,2R,6S)-2-(((1r,4R)-4-ethylcyclohexyl)carbamoyl)-6-(4-((N, 1,2-trimethyl-1H-benzo[d]imidazole)-5-sulfonamido)phenyl)cyclohexane-1-carboxylic acid]	1.26	1260	–
O=C(O)[C@@H]1[C@@H](c2ccc(-c3ccoc3)cc2)CCC[C@H]1C(=O)Nc1ccc(C(F)(F)F)cc1F [Example 10, (1R,2R,6S)-2-((2-fluoro-4-(trifluoromethyl)phenyl)carbamoyl)-6-(4-(furan-3-yl)phenyl) cyclohexane-1-carboxylic acid]	100	12600	–
O=C(O)[C@@H]1[C@@H](C(=O)Nc2ccc(C(F)(F)F)cc2F)CCC[C@H]1c1ccc(NS(=O)(=O)c2ccc3[nH]cnc3c2)cc1 (single isomer, unassigned) [Example 225]	0.251	7940	–
C=C(F)C(=O)Nc1ccc([C@H]2CCC[C@@H](C(=O)Nc3ccc(C(F)(F)F)cc3F)[C@@H]2C(=O)O)cc1 (racemic) [Example 227, rac-(1R,2R,6S)-2-((2-fluoro-4-(trifluoromethyl)phenyl)carbamoyl)-6-(4-(2-fluoroacrylamido)phenyl)cyclohexane-1-carboxylic acid]	79.4	15800	–
CCC[C@H]1CC[C@H](NC(=O)[C@@H]2CCC[C@H](c3ccc(N(C)S(=O)(=O)c4ccc5c(c4)nc(C)n5C)cc3)[C@H]2C(=O)O)CC1 [Example 190, (1R,2R,6S)-2-(((1s,4R)-4-propylcyclohexyl)carbamoyl)-6-(4-((N,1,2-trimethyl-1H-benzo[d]imidazole)-5-sulfonamido)phenyl)cyclohexane-1-carboxylic acid]	1.58	3980	–
CCN(c1ccc([C@H]2CCC[C@@H](C(=O)Nc3ccc(C(F)(F)F)cc3F)[C@@H]2C(=O)O)cc1)S(=O)(=O)c1ccc2c(c1)nc(C)n2C [Example 233]	12.6	5010	–
O=C(O)[C@@H]1[C@@H](c2ccc(-c3cccs3)cc2)CCC[C@H]1C(=O)Nc1ccc(C(F)(F)F)cc1F [Example 31, (1R,2R,6S)-2-((2-fluoro-4-(trifluoromethyl)phenyl)carbamoyl)-6-(4-(thiophen-2-yl)phenyl)cyclohexane-1-carboxylic acid]	100	10000	–
N#Cc1cscc1-c1ccc([C@H]2CCC[C@@H](C(=O)Nc3ccc(C(F)(F)F)cc3F)[C@@H]2C(=O)O)cc1 [Example 32, (1R,2S,6R)-2-(4-(4-cyanothiophen-3-yl)phenyl)-6-((2-fluoro-4-(trifluoromethyl)phenyl)carbamoyl)cyclohe xane-1-carboxylic acid]	79.4	10000	–
CN1CCc2c(cccc2S(=O)(=O)N(C)c2ccc([C@H]3CCC[C@@H](C(=O)Nc4ccc(C(F)(F)F)cc4F)[C@@H]3C(=O)O)cc2)C1 [Example 114, (1R,2S,6R)-2-(4-((N,2-dimethyl-1,2,3,4-tetrahydroisoquinoline)-5-sulfonamido)phenyl)-6-((2-fluoro-4-(trifluoromethyl)phenyl)carbamoyl)cyclohexane-1-carboxylic acid]	7.94	2510	–

The next lines start with results.

IC50 [1] [nM]	Compound	CC50 [2] [nM]	SW48 pCC50 ([2]; SW48 cell viability, 120 hours incubation)
316	Cc1nc2cc(S(=O)(=O)N(C)c3ccc([C@@H]4C[C@H](OC[C@@H]5CCOC5)C[C@H](C(=O)Nc5ccc(C(F)(F)F)cc5F)[C@H]4C(=O)O)cc3)ccc2n1C (stereo in doubt) [Example 319, (1R*,2R*,4R*,6S*)-2-((2-fluoro-4-(trifluoromethyl)phenyl)carbamoyl)-4-(((R)-tetrahydrofuran-3-yl)methoxy)-6-(4-((N,1,2-trimethyl-1H-benzo[d]imidazole)-5-sulfonamido)phenyl)cyclohexane-1-carboxylic acid]	12600	–
1.58	Cc1nc2cc(S(=O)(=O)N(C)c3ccc([C@H]4C[C@H](N)C[C@@H](C(=O)Nc5ccc(C(F)(F)F)cc5F)[C@@H]4C(=O)O)cc3)ccc2n1C (stereo in doubt) [Example 300, rel-(1R,2R,4S,6S)-4-amino-2-((2-fluoro-4-(trifluoromethyl)phenyl)carbamoyl)-6-(4-((N,1,2-trimethyl-1H-benzo[d]imidazole)-5-sulfonamido)phenyl)cyclohexane-1-carboxylic acid]	12600	–
126	Cc1nc2cc(S(=O)(=O)N(C)c3ccc([C@@H]4C[C@H](OCC5(C)COC5)C[C@H](C(=O)Nc5ccc(C(F)(F)F)cc5F)[C@H]4C(=O)O)cc3)ccc2n1C (stereo in doubt) [Example 366, rel-(1R,2R,4R,6S)-2-((2-fluoro-4-(trifluoromethyl)phenyl)carbamoyl)-4-((3-methyloxetan-3-yl)methoxy)-6-(4-((N,1,2-trimethyl-1H-benzo[d]imidazole)-5-sulfonamido)phenyl)cyclohexane-1-carboxylic acid]	15800	–
251	Cc1nc2cc(S(=O)(=O)N(C)c3ccc([C@H]4C[C@H](N5CCCCC5)C[C@@H](C(=O)Nc5ccc(C(F)(F)F)cc5F)[C@@H]4C(=O)O)cc3)ccc2n1C (relative stereo) [Example 349, rel-(1R,2R,4S,6S)-2-((2-fluoro-4-(trifluoromethyl)phenyl)carbamoyl)-4-(piperidin-1-yl)-6-(4-((N,1,2-trimethyl-1H-benzo[d]imidazole)-5-sulfonamido)phenyl)cyclohexane-1-carboxylic acid]	12600	–
100	Cc1nc2cc(S(=O)(=O)N(C)c3ccc([C@H]4CCC[C@@H](C(=O)Nc5ccc(C(F)(F)F)cc5F)[C@@H]4C(=O)O)c(F)c3)ccc2n1C (single isomer, unassigned) [Example 375]	–	4.7
158	Cc1nc2cc(S(=O)(=O)N(C)c3ccc([C@@H]4C[C@H](OC(C)C)C[C@H](C(=O)Nc5ccc(C(F)(F)F)cc5F)[C@H]4C(=O)O)cc3)ccc2n1C (stereo in doubt) [Example 312, rel-(1R,2R,4R,6S)-2-((2-fluoro-4-(trifluoromethyl)phenyl)carbamoyl)-4-isopropoxy-6-(4-((N,1,2-trimethyl-1H-benzo[d]imidazole)-5-sulfonamido)phenyl)cyclohexane-1-carboxylic acid]	12600	–
100	Cc1nc2cc(S(=O)(=O)N(C)c3ccc([C@@H]4C[C@H](C#N)C[C@H](C(=O)Nc5ccc(C(F)(F)F)cc5F)[C@H]4C(=O)O)cc3)ccc2n1C (single isomer, unassigned) [Example 286]	12600	–
15.8	CN(c1ccc([C@H]2CCC[C@@H](C(=O)Nc3ccc(C(F)(F)F)cc3F)[C@@H]2C(=O)O)cc1)S(=O)(=O)c1ccc(Br)c(O)c1 [Example 274, (1R,2S,6R)-2-(4-((4-bromo-3-hydroxy-N-methylphenyl)sulfonamido)phenyl)-6-((2-fluoro-4-(trifluoromethyl)phenyl)carbamoyl)cyclohexane-1-carboxylic acid]	15800	–
